# Literature values as cited in patent US20140248600A1, “BLOOD TREATMENT APPARATUS ADAPTED TO PRESERVE PARTS THEREOF” (Gambro Lundia AB, priority 2011, published 2014).
# Test system: C. albicans
# Settings: resulting pH: acetic acid 3.6; citric acid 2.4; succinic acid 2.8; tartaric acid 2.3; fumaric acid 2.6; maleic acid 2.0; control pH 5.5
row,SMILES,Growth of C. albicans with acid added to the medium
1,O=C(O)/C=C\C(=O)O [maleic acid],inhibition of growth
2,O=C(O)C(O)C(O)C(=O)O (stereo not drawn) [tartaric acid],grew as well as the control
3,O=C(O)CCC(=O)O [succinic acid],grew as well as the control
4,O=C(O)CC(O)(CC(=O)O)C(=O)O [citric acid],grew as well as the control
5,CC(=O)O [acetic acid],grew as well as the control
6,O=C(O)/C=C/C(=O)O [fumaric],inhibition of growth
